Measurements: ChEMBL document CHEMBL2021924, “Identification of novel telomeric G-quadruplex-targeting chemical scaffolds through screening of three NCI libraries” (Bioorg Med Chem Lett, 2012)

What was measured:
Assay type in all cases: nucleic-acid assay
Nucleic Acid [1] = assay: Stabilization of DNA duplex hairpin structure assessed as change in melting temperature at 1 uM by FRET assay
Nucleic Acid [2] = assay: Stabilization of human G-quadruplex F21T assessed as change in melting temperature at 1 uM by FRET assay
Nucleic Acid [3] = assay: Stabilization of human G-quadruplex F21T assessed as change in melting temperature at 5 uM by FRET assay

SMILES	ΔTm (Nucleic Acid [1]) [°C]	ΔTm (Nucleic Acid [2]) [°C]	ΔTm (Nucleic Acid [3]) [°C]
COc1cc2c3c(n(C)c(=O)c2cc1OC)-c1cc2c(cc1C3=O)OCO2	0.3	8.1	18.8
COc1cc2cc3c4cc(OC)c(OC)cc4cc[n+]3c(C)c2cc1OC.O=C([O-])CS(=O)(=O)O	3.2	29.9	42.6
CCN(CC)Cc1cc2[nH]c3c4ccc(Cl)cc4ncc3c2cc1OC	0.7	15	25.9
N=C(N)c1ccc(/C=C/c2ccc(C(=N)N)cc2O)cc1	3.2	17.3	26.3
COc1cc(Cc2nccc3cc(OC)c(OC)cc23)c(C(C)=O)cc1OC	0.4	8	36.7
CCN(CC)CCNc1ccc2nc(C)n3c4ccc(OC)cc4c(=O)c1c23	2.6	4.2	15.2
c1ccc2c(NCCCCCCCCNc3c4ccccc4nc4ccccc34)c3ccccc3nc2c1	0.7	3	38.5
Cc1cc(NCCCCCCCNc2cc(C)nc3cc(N)ccc23)c2ccc(N)cc2n1	0.6	11.8	38.7
Cc1cc(N)c2ccccc2[n+]1CCCCCCCCCC[n+]1c(C)cc(N)c2ccccc21	1.3	19.5	40.7
COc1ccc2cc3[n+](cc2c1OC)CCc1cc2c(cc1-3)OCO2	0.3	9.7	23.8
COc1ccc2c(=O)oc3c(OC)cc(CCN(C)C)c4c(=O)oc1c2c34	1.7	13.2	24
O=C(Nc1ccc(C2=NCCCN2)cc1)Nc1ccc(C2=NCCCN2)cc1	2.9	20.1	21.5

Continued, values first:

ΔTm (Nucleic Acid [1]) [°C]	ΔTm (Nucleic Acid [2]) [°C]	ΔTm (Nucleic Acid [3]) [°C]	SMILES
1.4	8.4	20.4	O=C(Nc1ccc(C2=NCCN2)cc1)c1ccc(C(=O)Nc2ccc(C3=NCCN3)cc2)c(Cl)c1
3.4	13.3	33.2	O=C(Nc1ccc(C2=NCCN2)cc1)c1ccc(C(=O)Nc2ccc(C3=NCCN3)cc2)c([N+](=O)[O-])c1
8.8	29.5		CN(C)c1ccc(Nc2c3ccc(NC(=O)CCN4CCCC4)cc3nc3cc(NC(=O)CCN4CCCC4)ccc23)cc1
1.8	20.3	35.1	Cc1cc2nc3ccc(N(C)C)cc3[s+]c2cc1N
3.9	30.5	39	COc1ccc2c(NCCCCCCNc3c4ccccc4nc4cc(OC)ccc34)c3ccccc3nc2c1
0.3	1.3	22.1	CN(C)c1ccc(C=c2c3ccccc3n3c2cc(-c2ccc(Cl)cc2)[n+]3C)cc1
0	12.4	22.9	Cc1ccc2c(ccc(/C=C/c3ccc(O)c4ncccc34)[n+]2C)c1
1.4	24.2	37.3	O=C(Nc1ccc(C2=NCCN2)cc1)c1ccc(Cl)c(C(=O)Nc2ccc(C3=NCCN3)cc2)c1
0.6	11.2	36.4	CCN1C=C/C(=C\C=C\c2cc[n+](CC)c3ccccc23)c2ccccc21
0.4	15.8	31.1	CC(=O)N(C)c1ccc(Nc2cc(C)nc3ccc4nc[nH]c4c23)cc1
0.4	7.3	19.7	Cc1cc(N)c2cc(NC(=O)/C=C/c3ccccc3Cl)ccc2n1
0.4	22.7	26.6	Cc1ccc(NC(=O)Nc2nc3ccccc3s2)cc1NC(=O)Nc1nc2ccccc2s1
